From ChEMBL document CHEMBL3997824, “Synthesis and biological evaluation of potential inhibitors of the cysteine proteases cruzain and rhodesain designed by molecular simplification” (Bioorg Med Chem, 2017)
Active and inactive are the calls of the source. No cut-off for these calls is given here.

Key:
Trypanosoma cruzi [1] = test: Antitrypanosomal activity against Trypanosoma cruzi Tulahuen trypomastigote forms infected in mouse L929 cells after 96 hrs by chlorophenol red-beta-D-galactopyranoside dye based assay; assay type: functional, cell-based; conditions: L929, 96 h
[2] = target: Cathepsin S (Homo sapiens) (UniProt P25774); test: Inhibition of recombinant human cathepsin S at 1 uM using cbz-val-val-arg-7-amino-4-methylcoumarin as substrate measured for 15 mins by fluorescence assay relative to control
Sequence of Cathepsin S (Homo sapiens) (P25774 115-331 limits assumed): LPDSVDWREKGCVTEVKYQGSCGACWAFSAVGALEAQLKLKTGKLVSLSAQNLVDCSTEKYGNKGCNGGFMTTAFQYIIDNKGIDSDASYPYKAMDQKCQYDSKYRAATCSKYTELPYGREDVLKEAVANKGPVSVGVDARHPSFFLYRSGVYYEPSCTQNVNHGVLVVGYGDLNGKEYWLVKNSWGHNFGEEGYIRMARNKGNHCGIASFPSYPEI

[3] = target: Cathepsin S (Homo sapiens) (UniProt P25774); test: Inhibition of recombinant human cathepsin S at 1 uM using cbz-val-val-arg-7-amino-4-methylcoumarin as substrate preincubated for 5 mins followed by substrate addition measured for 15 mins by fluorescence assay relative to control
[4] = target: Cathepsin B (Rattus norvegicus) (UniProt P00787); test: Inhibition of rat cathepsin B at 1 uM using cbz-phe-Arg-amidomethylcoumarin as substrate measured for 15 mins by fluorescence assay relative to control
Sequence of Cathepsin B (Rattus norvegicus) (P00787 80-333 limits assumed): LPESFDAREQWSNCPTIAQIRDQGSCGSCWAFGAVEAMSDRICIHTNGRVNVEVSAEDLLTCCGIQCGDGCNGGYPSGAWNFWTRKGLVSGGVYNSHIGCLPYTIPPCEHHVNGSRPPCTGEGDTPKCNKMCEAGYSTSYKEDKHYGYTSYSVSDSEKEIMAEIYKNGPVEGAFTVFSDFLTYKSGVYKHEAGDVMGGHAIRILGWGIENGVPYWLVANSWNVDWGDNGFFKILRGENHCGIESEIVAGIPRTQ

[5] = target: Cathepsin B (Rattus norvegicus) (UniProt P00787); test: Inhibition of rat cathepsin B at 1 uM using cbz-phe-Arg-amidomethylcoumarin as substrate preincubated for 5 mins followed by substrate addition measured for 15 mins by fluorescence assay relative to control
[6] = target: Cruzipain (Trypanosoma cruzi) (UniProt P25779); test: Inhibition of recombinant Trypanosoma cruzi cruzain at 100 uM using Z-phe-Arg-amidomethylcoumarin as substrate by fluorometric method relative to control
Sequence of Cruzipain (Trypanosoma cruzi) (P25779 123-467 limits assumed): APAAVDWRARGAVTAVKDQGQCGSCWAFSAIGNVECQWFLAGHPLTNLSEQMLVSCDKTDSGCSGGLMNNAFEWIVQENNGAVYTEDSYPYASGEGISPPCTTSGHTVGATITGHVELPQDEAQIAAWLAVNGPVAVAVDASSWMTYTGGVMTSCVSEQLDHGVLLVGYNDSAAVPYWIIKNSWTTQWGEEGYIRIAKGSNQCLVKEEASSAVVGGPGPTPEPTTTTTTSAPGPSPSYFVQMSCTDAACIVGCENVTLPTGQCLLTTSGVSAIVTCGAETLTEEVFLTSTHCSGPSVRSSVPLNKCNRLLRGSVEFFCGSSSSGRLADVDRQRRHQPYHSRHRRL

Trypanosoma brucei [7] = test: Inhibition of recombinant Trypanosoma brucei rhodesain at 100 uM using Z-phe-Arg-amidomethylcoumarin as substrate by fluorometric method relative to control
Cruzipain [8] = target: T1, Cruzipain (Trypanosoma cruzi, UniProt P25779); test: Inhibition of recombinant Trypanosoma cruzi cruzain using Z-phe-Arg-amidomethylcoumarin as substrate by fluorometric method
T1 sequence (P25779 whole entry): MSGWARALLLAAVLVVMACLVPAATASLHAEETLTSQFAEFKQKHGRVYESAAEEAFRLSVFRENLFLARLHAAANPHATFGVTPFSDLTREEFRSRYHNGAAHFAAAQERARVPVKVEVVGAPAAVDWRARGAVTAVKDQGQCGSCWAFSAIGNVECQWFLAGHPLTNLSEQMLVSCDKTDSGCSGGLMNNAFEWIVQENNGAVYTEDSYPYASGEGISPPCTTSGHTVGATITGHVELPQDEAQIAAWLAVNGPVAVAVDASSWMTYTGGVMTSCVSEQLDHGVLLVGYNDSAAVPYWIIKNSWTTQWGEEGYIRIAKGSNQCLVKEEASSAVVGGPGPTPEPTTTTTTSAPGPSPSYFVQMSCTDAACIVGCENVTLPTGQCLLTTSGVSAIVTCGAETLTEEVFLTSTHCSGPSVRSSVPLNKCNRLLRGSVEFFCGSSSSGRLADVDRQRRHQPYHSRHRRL

[9] = Inhibition of recombinant Trypanosoma brucei rhodesain using Z-phe-Arg-amidomethylcoumarin as substrate by fluorometric method
[10] = target: Cathepsin S (Homo sapiens) (UniProt P25774); test: Inhibition of recombinant human cathepsin S at 100 uM using cbz-val-val-arg-7-amino-4-methylcoumarin as substrate measured for 15 mins by fluorescence assay relative to control
[11] = target: Cathepsin S (Homo sapiens) (UniProt P25774); test: Inhibition of recombinant human cathepsin S at 100 uM using cbz-val-val-arg-7-amino-4-methylcoumarin as substrate preincubated for 5 mins followed by substrate addition measured for 15 mins by fluorescence assay relative to control
[12] = target: Cathepsin B (Rattus norvegicus) (UniProt P00787); test: Inhibition of rat cathepsin B at 100 uM using cbz-phe-Arg-amidomethylcoumarin as substrate measured for 15 mins by fluorescence assay relative to control
[13] = target: Cathepsin B (Rattus norvegicus) (UniProt P00787); test: Inhibition of rat cathepsin B at 100 uM using cbz-phe-Arg-amidomethylcoumarin as substrate preincubated for 5 mins followed by substrate addition measured for 15 mins by fluorescence assay relative to control
[14] = Cytotoxicity against mouse L929 cells after 96 hrs by alamar blue assay; assay type: cell-based
[15] = Selectivity index, ratio of CC50 for mouse L929 cells to IC50 for Trypanosoma cruzi Tulahuen trypomastigote forms infected in mouse L929 cells; assay type: toxicity, cell-based; conditions: read-out: Ratio CC50/IC50
Cruzipain [16] = target: T1, Cruzipain; test: Competitive inhibition of recombinant Trypanosoma cruzi cruzain in presence of varying levels of Z-phe-Arg-amidomethylcoumarin substrate by Lineweaver-Burk plot analysis
Trypanosoma cruzi [17] = test: Antitrypanosomal activity against Trypanosoma cruzi Tulahuen trypomastigote forms infected in mouse L929 cells up to 250 uM after 96 hrs by chlorophenol red-beta-D-galactopyranoside dye based assay; assay type: functional, cell-based
[18] = target: Cruzipain (Trypanosoma cruzi) (UniProt P25779); test: Inhibition of recombinant Trypanosoma cruzi cruzain at 100 uM in AcOH/AcONA buffer using Z-phe-Arg-amidomethylcoumarin as substrate by fluorometric method relative to control
Trypanosoma brucei [19] = test: Inhibition of recombinant Trypanosoma brucei rhodesain at 100 uM in AcOH/AcONA buffer using Z-phe-Arg-amidomethylcoumarin as substrate by fluorometric method relative to control
[20] = Inhibition of recombinant Trypanosoma brucei rhodesain in AcOH/AcONA buffer using Z-phe-Arg-amidomethylcoumarin as substrate by fluorometric method

Structure (SMILES)	IC50 (Trypanosoma cruzi [1])	inhibition [6]	inhibition (Trypanosoma brucei [7])	CC50 at 96 h [14]	selectivity ratio [15]	Activity (Trypanosoma cruzi [17])	further results
CC(C)C[C@H](NC(=O)[C@@H]1O[C@H]1C(=O)O)C(=O)NCCCCN=C(N)N	–	–	–	–	–	–	inhibition [2]: 100%; inhibition [3]: 100%; inhibition [4]: 99%; inhibition [5]: 100%
Clc1ccc2[nH]c(CNC3CCCCC3)cc2c1	10.7 µM	8%	4%	12.5 µM	1.2	–	–
Clc1ccc2[nH]c3c(NCCCN4CCOCC4)ncnc3c2c1	–	–	–	–	–	–	IC50 (Cruzipain [8]): 15 µM
Clc1ccc2c(NCCCN3CCOCC3)ccnc2c1	67.7 µM	88%	51%	123 µM	1.8	–	IC50 (Cruzipain [8]): 15 µM; Ki (Cruzipain [16]): 12.1 µM; inhibition [10]: 13%; inhibition [11]: 10%; inhibition [12]: 6%; inhibition [13]: 8%
CCCNc1ccnc2cc(Cl)ccc12	125 µM	53%	49%	283 µM	2.3	–	–
NCCCNc1ccnc2cc(Cl)ccc12	–	–	–	–	–	inactive	inhibition [18]: 39%; inhibition (Trypanosoma brucei [19]): 53%
Cc1ccc(NC(=O)CNCCCN2CCOCC2)cc1	–	3.5%	13.1%	–	–	inactive	–
NCCNc1ccnc2cc(Cl)ccc12	77.5 µM	–	–	< 194 µM	< 2.5	–	inhibition [18]: 44%; inhibition (Trypanosoma brucei [19]): 62%; IC50 [20]: 126 µM
CN1CCN(c2ccncn2)CC1	–	5%	13%	–	–	inactive	–
c1cc(NCCCN2CCOCC2)ncn1	–	1%	5%	–	–	inactive	–
OCCCNc1ccnc2cc(Cl)ccc12	–	67%	63%	–	–	inactive	IC50 (Cruzipain [8]): 28 µM; IC50 [9]: 72 µM; inhibition [10]: 14%; inhibition [11]: 4%; inhibition [12]: 8%; inhibition [13]: 5%
CN1CCN(Cc2ccc[nH]2)CC1	–	10.9%	32.1%	–	–	inactive	–
OCCNc1ccnc2cc(Cl)ccc12	–	60%	61%	–	–	inactive	IC50 (Cruzipain [8]): 62 µM; IC50 [9]: 58 µM
Clc1ccc2[nH]c(CNCCCN3CCOCC3)cc2c1	38.9 µM	15%	1%	75 µM	1.9	–	–
O=C(CNc1ccnc2cc(Cl)ccc12)N1CCOCC1	–	55%	61%	–	–	inactive	IC50 [9]: 48 µM
CN1CCN(CC(=O)Nc2ccc(Cl)cc2)CC1	–	28.5%	22.6%	–	–	inactive	–
O=C(CNCCCN1CCOCC1)Nc1ccc(Cl)cc1	–	16.5%	21%	–	–	inactive	–
Cc1ccc(NC(=O)CN2CCN(C)CC2)cc1	–	0%	15.5%	–	–	inactive	–
OCCN1CCN(c2ccnc3cc(Cl)ccc23)CC1	–	–	–	–	–	inactive	inhibition [18]: 42.6%; inhibition (Trypanosoma brucei [19]): 53%

Now from value to compound, other results behind:

IC50 (Trypanosoma cruzi [1])	inhibition [6]	inhibition (Trypanosoma brucei [7])	Structure (SMILES)	CC50 at 96 h [14]	selectivity ratio [15]	Activity (Trypanosoma cruzi [17])	further results
3.8 µM	–	–	O=C(Cn1ccnc1[N+](=O)[O-])NCc1ccccc1 [BENZNIDAZOLE]	–	–	–	–
37.2 µM	65%	71%	Clc1ccc2c(NCc3ccccc3)ccnc2c1	46.5 µM	1.2	–	IC50 (Cruzipain [8]): 44 µM; IC50 [9]: 34.2 µM; inhibition [10]: 17%; inhibition [11]: 12%; inhibition [12]: 2%; inhibition [13]: 9%
3.1 µM	15%	20%	c1ccc2c(c1)CCN(c1ccncn1)C2	400 µM	128	–	–
25 µM	4%	5%	Clc1ccc2[nH]c(CNCc3ccccc3)cc2c1	31 µM	1.2	–	–
–	3.2%	49.1%	c1c[nH]c(CN2CCc3ccccc3C2)c1	–	–	inactive	–
38.2 µM	53%	61%	Clc1ccc2c(NCCCN3CCCCC3)ccnc2c1	61.5 µM	1.6	–	–
64.2 µM	18.2%	20.5%	O=C(CN1CCc2ccccc2C1)Nc1ccc(Cl)cc1	< 125 µM	< 1.9	–	–
–	0%	15.1%	c1c[nH]c(CNCCCN2CCOCC2)c1	–	–	inactive	–
–	6%	8%	c1ccc2[nH]c(CNC3CCCCC3)cc2c1	–	–	inactive	–
–	23.6%	66.7%	c1c[nH]c(CN2CCOCC2)c1	–	–	inactive	IC50 [9]: 55 µM
–	4%	7%	c1ccc2[nH]c(CNCCCN3CCOCC3)cc2c1	–	–	inactive	–
–	38.6%	7.4%	CN1CCN(CC(=O)Nc2ccccc2)CC1	–	–	inactive	–
–	9%	8%	c1ccc(CNCc2cc3ccccc3[nH]2)cc1	–	–	inactive	–
–	2.9%	7.4%	O=C(CNCCCN1CCOCC1)Nc1ccccc1	–	–	inactive	–
83.3 µM	15.3%	16.7%	Cc1ccc(NC(=O)CN2CCc3ccccc3C2)cc1	125 µM	1.5	–	–
–	56%	61%	Clc1ccc2c(NCCN3CCOCC3)ccnc2c1	–	–	inactive	IC50 (Cruzipain [8]): 41 µM; IC50 [9]: 61 µM
57.6 µM	43%	56%	Clc1ccc2c(NCCN3CCCCC3)ccnc2c1	64.5 µM	1.1	–	–
245 µM	7.7%	19.1%	O=C(CN1CCc2ccccc2C1)Nc1ccccc1	375 µM	1.5	–	–
